Measurements reported in patent US20250288558A1, “THERAPEUTIC FOR SPINAL CORD INJURY TO INDUCE HYPOTHERMIA” (The Trustees of Indiana University, priority 2024, published 2025).
Counter-ions that a name gives are not always drawn.

What was measured:
[1] = tested on: mice with moderate T9 contusive SCI
From the text: (§1) Therefore, we compared the functional outcomes of Dex treated SCI mice with SCI only mice using multiple behavior tests post-trauma. C57 BL/6 wild type mice (female) at age of 8 weeks were randomly assigned into three different groups, including sham, SCI, and SCI+Dex. Then the moderate T9 contusive SCI was introduced in two injury groups using LISA injury model. Mice in sham and SCI only group were put on the heating pad to maintain their normal body temperature, while mice in Dex treated group were exposed in ambient room temperature of 24.5° C. for hypothermia during whole surgery and recovery process. One hour after injury, one dose of Dex (100 μg/kg) was IP administrated to rapidly induce early moderate to modest therapeutic hypothermia (30-32° C.). All mice body temperature were measured by rectal probe every 30 minutes to monitor the hypothermia after surgery till the mice fully waked up and back to normothermia. After SCI injury, at different time, multiple behavioral tests, were applied to examine functional outcomes and the potential neuroprotective effects of Dex treatment (FIG. 3A). The Basso Mouse Scale (BMS) was a reliable measurement that developed to examine the locomotion in spinal cord injured mice. It has been widely used in mouse functional evaluation and serves as an indicator of recovery. This test examines different locomotor categories such as paralysis, weight support, stepping, trunk stability, and so on. The scores ranged from 9 to 0 that represent normal movement to complete paralysis, respectively. Three days prior surgery, the BMS scores of all mice in different groups were measured. Only mice with 9 score were kept. The mice with score lower than 9 were replaced to make sure mice in different groups had same baseline of locomotion. After surgery, the BMS score was repeatedly measured at 3 days, 1 week, 2 weeks, 3 weeks, 4 weeks, 5 weeks, and 6 weeks (FIG. 3B).
Contusive spinal cord injury: Adult female C57BL/6 mice (8 weeks old, 18-22 g) were purchased from The Jackson Laboratory (Bar Harbor, ME). Depending on different injury model, mice were either randomly divided into three groups: sham, SCI+heating pad, and SCI+Dex for LISA injury model, or were randomly divided into four groups: sham, SCI+heating pad, SCI+Dex, and SCI+Conventional hypothermia for Infinite Horizons (IH) model. […] All animal care, handling, and surgery were performed in accordance with the Guide for the Care and Use of Laboratory Animals (National Research Council) and the Guidelines of the Institutional Animal Care and Use Committee of Indiana University School of Medicine. Spinal cord contusion was made at the thoracic (T9) vertebral level. After avertin anesthesia, animals will be placed on a thermometer-controlled heating pad for the duration of recovery (except Dex and conventional hypothermia treated group). For LISA injury model, C57/6J mice were anesthetized. A midline skin incision was made to expose the thoracolumbar spine, followed by the removal of the T9 spinous process and lamina to expose the dura mater. The displacement was set to be 0.5 mm. The T9 contusion injury was performed using a LISA impactor, where the injury level was determined using a laser sensor. After injury confirmation, the surgical area is sutured, the animal is hydrated and monitored for post-operative care, including analgesia and bladder expression. For IH model, a 1-inch skin incision was placed on the dorsal midline, musculature was retracted, and then the spinal column was visualized and placed into a stabilizer with two clamps retracting the spinous processes of the vertebrae directly surrounding the injury site. A laminectomy was performed to expose the dura.

[2] = tested on: mice with contusive T9 moderate SCI (IH); details: 6 wk, SCI+Dex, n=10
Protocol: Grid-walking: The grid-walking test assesses the ability of a mouse to place its paws on the rungs of a grid accurately during spontaneous exploration. An elevated metal rectangle grid (12×36 inch2 with each grid cell 0.5×0.5 inch2) and 16 inches above a table top was used for the hindlimb drop error test. Each mouse was placed in the center of the grid for 3 min. A one-foot drop error was counted when the hindlimb paw was entirely dropping through the grid with all toes and heel below the grid surface. The total number of foot drop errors and total number of steps were recorded by video. Two observers who were blinded to the experiment analyzed the video and counted the steps. The grid-walking test was performed on the day before surgery and on days 21 and 35 post-SCI. Only those mice with consistent plantar stepping (BMS≥5) were tested on the grid.

GFAP = details: epicenter
Protocol: (§2) Immunofluorescent Staining: Immunofluorescent staining was carried out according to our previous reports. In brief, sections on the slides were rinsed in PBS 3 times (5 minutes each) and incubated in blocking buffer (0.1% Triton X-100, 1% bovine serum albumin, and 5% normal serum in PBS) for 1 hour at room temperature. Then, primary antibodies were added to blocking buffer and incubated with sections overnight at 4° C. After 3 washes with PBS (5 minutes each), sections were incubated with the secondary antibody for 1 hour at room temperature and then treated with 4′,6-Diamidino-2-phenylindole (DAPI) for 2 minutes. Finally, sections were washed 3 times with PBS (5 minutes each), dried, and mounted using Fluoromount G (Southern Biotech, Birmingham, AL, USA). Primary antibodies and their final concentrations were as follows: NeuN antibody (1:500, chicken, Abcam, ab134014), SMI31 antibody (1:1000, mouse, Millipore, NE1022), and GFAP antibody (1:1000, mouse, Sigma, G3893).

NeuN-positive neurons = details: after SCI, FIG. 8A
Protocol: (§3) We further counted the number of NeuN-positive neurons in each section. […] Therefore, SMI31, an axon maker immunostaining was performed to evaluate the axons in spared white matter.
as §2

[3] = tested on: SMI31-positive axons in white matter; details: FIG. 8B
Protocol: as §3, §2

[4] = tested on: mice with moderate contusive spinal cord injury (SCI) at thoracic 9 (T9)
Protocol: The effects of different doses of Dex on hypothermia induction in none-injury young adult c57 BL/6 mice was tested. […] Further, we examined the change of Dex induced hypothermia when the routine Avertin (2.5%), a wildly used anesthetic for small animal surgery was applied.
as §1
Contusive spinal cord injury: Adult female C57BL/6 mice (8 weeks old, 18-22 g) were purchased from The Jackson Laboratory (Bar Harbor, ME). Depending on different injury model, mice were either randomly divided into three groups: sham, SCI+heating pad, and SCI+Dex for LISA injury model, or were randomly divided into four groups: sham, SCI+heating pad, SCI+Dex, and SCI+Conventional hypothermia for Infinite Horizons (IH) model. […]

Cc1cccc([C@H](C)c2cnc[nH]2)c1C [Dex, dexmedetomidine hydrochloride]
locomotion recovery (BMS) compared to none-treatment SCI group ([1]; FIG. 3B, female, n=10): better locomotion recovery
improvement of locomotor function in BMS test ([1]; compared with about 25% for hypothermia alone (meta-analysis)): 70%
BMS score compared to SCI only group ([1]; day 3 post-injury, Dex 100 μg/kg IP one hour after injury): did not show the significant difference
average BMS score ([1]; one week after surgery, Dex 100 μg/kg IP): ~5
increase of BMS score compared to SCI only group ([1]; week 6 (end of test)): over 65%
BMS score ([1]; week 6 (end of test), Dex 100 μg/kg IP): about 7.8
Grid walk foot fall [2]: 12.9±3.6
intensity of GFAP-positive signal compared to none-treatment SCI mice (GFAP): decreased significantly
surviving NeuN-positive neurons compared to none-treatment group (NeuN-positive neurons): about 10 times
SMI31 signal (intensity and area) vs. SCI [3]: significantly preserved more
time at which normal body temperature was regained ([4]; Dex 100 μg/kg 1 hour after T9 SCI): 24 hr post trauma
duration of hypothermia ([4]; Dex 100 μg/kg one hour after T9 SCI (LISA)): up to 16 hours
time to spontaneously rewarm to normal temperature ([4]; Dex 100 μg/kg one hour after T9 SCI, after the hypothermia period): 5 to 6 h
rewarming rate ([4]; Dex 100 μg/kg one hour after T9 SCI, spontaneous rewarming, hydrochloride): < 1.0 °C per hour
